Measured values published in US12643859B2, “Pyridyl oxycarboxylic acid oxime derivative and preparation method therefor, weeding composition and application thereof” (Qingdao Kingagroot Chemical Compound Co., Ltd., priority 2018, dated 2026).

Test system: Monocotyledonous and dicotyledonous weed seeds and main crop seeds
Assay: Post-emergence test experiment (Table 3, 1000 g a.i./ha)
Type: in vivo
Conditions: 3 weeks in greenhouse, fresh weight inhibition
Description: The above described growth inhibition rate is fresh weight inhibition rate.
Post-emergence test experiment: Monocotyledonous and dicotyledonous weed seeds and main crop seeds (i. e. wheat, corn, rice, soybean, cotton, oilseed, millet and sorghum.) were put into a plastic pot loaded with soil. Then covered with 0.5-2 cm soil, the seeds were allowed to grow in good greenhouse environment. The test plants were treated at 2-3 leaf stage 2 weeks after sowing. The test compounds of the invention were dissolved with acetone respectively, then added with tween-80, and using 1.5 liters per hectare of an emulsible concentrate of methyl oleate as a synergist, and diluted by certain amount of water to certain concentration. The solution was sprayed to the plants with a sprayer. Then the plants were cultured for 3 weeks in the greenhouse, and the experiment result of weed controlling effect was listed in tables 3-4.

`CC(Oc1nc(F)c(Cl)c(N)c1Cl)C(=O)ON=C(Br)c1ccc(C#N)cc1` (stereo not drawn) [Compound 86] was tested, and the “Activity level (growth inhibition rate) Digitaria sanguinalis” value was 5 (Level 5: the growth inhibition rate is greater than 85%), the “Activity level (growth inhibition rate) Echinochloa crusgalli” value was 5 (Level 5: the growth inhibition rate is greater than 85%) and the “Activity level (growth inhibition rate) Galium spurium” value was 5 (Level 5: the growth inhibition rate is greater than 85%). For the same molecule, the “Activity level (growth inhibition rate) Leptochloa chinensis” value was 5 (Level 5: the growth inhibition rate is greater than 85%), the “Activity level (growth inhibition rate) Monochoria Vaginalis” value was 5 (Level 5: the growth inhibition rate is greater than 85%) and the “Activity level (growth inhibition rate) Murdannia triquetra” value was 5 (Level 5: the growth inhibition rate is greater than 85%). For the same molecule, the “Activity level (growth inhibition rate) Setaria viridis” value was 5 (Level 5: the growth inhibition rate is greater than 85%).
For `CSC(=NOC(=O)C(C)Oc1nc(F)c(Cl)c(N)c1Cl)c1ccc(SC)cc1` (stereo not drawn) [Compound 89], the “Activity level (growth inhibition rate) Digitaria sanguinalis” value was 5 (Level 5: the growth inhibition rate is greater than 85%), the “Activity level (growth inhibition rate) Echinochloa crusgalli” value was 5 (Level 5: the growth inhibition rate is greater than 85%) and the “Activity level (growth inhibition rate) Galium spurium” value was 5 (Level 5: the growth inhibition rate is greater than 85%). The “Activity level (growth inhibition rate) Leptochloa chinensis” value was 5 (Level 5: the growth inhibition rate is greater than 85%), the “Activity level (growth inhibition rate) Monochoria Vaginalis” value was 5 (Level 5: the growth inhibition rate is greater than 85%) and the “Activity level (growth inhibition rate) Murdannia triquetra” value was 5 (Level 5: the growth inhibition rate is greater than 85%). The “Activity level (growth inhibition rate) Setaria viridis” value was 5 (Level 5: the growth inhibition rate is greater than 85%).
For `CC(=O)C(=NOC(=O)C(C)Oc1nc(F)c(Cl)c(N)c1Cl)c1ccc(NOc2ccccc2)cc1` (stereo not drawn) [Compound 91], the “Activity level (growth inhibition rate) Digitaria sanguinalis” value was 5 (Level 5: the growth inhibition rate is greater than 85%), the “Activity level (growth inhibition rate) Echinochloa crusgalli” value was 5 (Level 5: the growth inhibition rate is greater than 85%) and the “Activity level (growth inhibition rate) Galium spurium” value was 5 (Level 5: the growth inhibition rate is greater than 85%). For the same molecule, the “Activity level (growth inhibition rate) Leptochloa chinensis” value was 5 (Level 5: the growth inhibition rate is greater than 85%), the “Activity level (growth inhibition rate) Monochoria Vaginalis” value was 5 (Level 5: the growth inhibition rate is greater than 85%) and the “Activity level (growth inhibition rate) Murdannia triquetra” value was 5 (Level 5: the growth inhibition rate is greater than 85%). For the same molecule, the “Activity level (growth inhibition rate) Setaria viridis” value was 5 (Level 5: the growth inhibition rate is greater than 85%).
With `CC(Oc1nc(F)c(Cl)c(N)c1Cl)C(=O)ON=C(Cc1ccccc1)c1ccccc1N` (stereo not drawn) [Compound 93] the “Activity level (growth inhibition rate) Digitaria sanguinalis” value was 5 (Level 5: the growth inhibition rate is greater than 85%), the “Activity level (growth inhibition rate) Echinochloa crusgalli” value was 5 (Level 5: the growth inhibition rate is greater than 85%) and the “Activity level (growth inhibition rate) Galium spurium” value was 5 (Level 5: the growth inhibition rate is greater than 85%). The “Activity level (growth inhibition rate) Leptochloa chinensis” value was 5 (Level 5: the growth inhibition rate is greater than 85%), the “Activity level (growth inhibition rate) Monochoria Vaginalis” value was 5 (Level 5: the growth inhibition rate is greater than 85%) and the “Activity level (growth inhibition rate) Murdannia triquetra” value was 5 (Level 5: the growth inhibition rate is greater than 85%). For the same molecule, the “Activity level (growth inhibition rate) Setaria viridis” value was 5 (Level 5: the growth inhibition rate is greater than 85%).
`CC(Oc1nc(F)c(Cl)c(N)c1Cl)C(=O)ON=C(C(=O)N(C)C)c1ccccc1` (stereo not drawn) [Compound 99] was tested, and the “Activity level (growth inhibition rate) Digitaria sanguinalis” value was 5 (Level 5: the growth inhibition rate is greater than 85%), the “Activity level (growth inhibition rate) Echinochloa crusgalli” value was 5 (Level 5: the growth inhibition rate is greater than 85%) and the “Activity level (growth inhibition rate) Galium spurium” value was 5 (Level 5: the growth inhibition rate is greater than 85%). The “Activity level (growth inhibition rate) Leptochloa chinensis” value was 5 (Level 5: the growth inhibition rate is greater than 85%), the “Activity level (growth inhibition rate) Monochoria Vaginalis” value was 5 (Level 5: the growth inhibition rate is greater than 85%) and the “Activity level (growth inhibition rate) Murdannia triquetra” value was 5 (Level 5: the growth inhibition rate is greater than 85%). The “Activity level (growth inhibition rate) Setaria viridis” value was 5 (Level 5: the growth inhibition rate is greater than 85%).
With `CC(Oc1nc(F)c(Cl)c(N)c1Cl)C(=O)ON=C(C(=O)NCc1ccccc1)c1ccccc1` (stereo not drawn) [Compound 101] the “Activity level (growth inhibition rate) Digitaria sanguinalis” value was 5 (Level 5: the growth inhibition rate is greater than 85%), the “Activity level (growth inhibition rate) Echinochloa crusgalli” value was 5 (Level 5: the growth inhibition rate is greater than 85%) and the “Activity level (growth inhibition rate) Galium spurium” value was 5 (Level 5: the growth inhibition rate is greater than 85%). The “Activity level (growth inhibition rate) Leptochloa chinensis” value was 5 (Level 5: the growth inhibition rate is greater than 85%), the “Activity level (growth inhibition rate) Monochoria Vaginalis” value was 5 (Level 5: the growth inhibition rate is greater than 85%) and the “Activity level (growth inhibition rate) Murdannia triquetra” value was 5 (Level 5: the growth inhibition rate is greater than 85%). For the same molecule, the “Activity level (growth inhibition rate) Setaria viridis” value was 5 (Level 5: the growth inhibition rate is greater than 85%).
In the case of `CSC(=O)C(=NOC(=O)C(C)Oc1nc(F)c(Cl)c(N)c1Cl)C(=O)NCc1ccc(Cl)cc1` (stereo not drawn) [Compound 102], the “Activity level (growth inhibition rate) Digitaria sanguinalis” value was 5 (Level 5: the growth inhibition rate is greater than 85%), the “Activity level (growth inhibition rate) Echinochloa crusgalli” value was 5 (Level 5: the growth inhibition rate is greater than 85%) and the “Activity level (growth inhibition rate) Galium spurium” value was 5 (Level 5: the growth inhibition rate is greater than 85%). For the same molecule, the “Activity level (growth inhibition rate) Leptochloa chinensis” value was 5 (Level 5: the growth inhibition rate is greater than 85%), the “Activity level (growth inhibition rate) Monochoria Vaginalis” value was 5 (Level 5: the growth inhibition rate is greater than 85%) and the “Activity level (growth inhibition rate) Murdannia triquetra” value was 5 (Level 5: the growth inhibition rate is greater than 85%). The “Activity level (growth inhibition rate) Setaria viridis” value was 5 (Level 5: the growth inhibition rate is greater than 85%).
`COc1ccc(CNC(=O)C(C)=NOC(=O)C(C)Oc2nc(F)c(Cl)c(N)c2Cl)cc1` (stereo not drawn) [Compound 103] was tested, and the “Activity level (growth inhibition rate) Digitaria sanguinalis” value was 5 (Level 5: the growth inhibition rate is greater than 85%), the “Activity level (growth inhibition rate) Echinochloa crusgalli” value was 5 (Level 5: the growth inhibition rate is greater than 85%) and the “Activity level (growth inhibition rate) Galium spurium” value was 5 (Level 5: the growth inhibition rate is greater than 85%). The “Activity level (growth inhibition rate) Leptochloa chinensis” value was 5 (Level 5: the growth inhibition rate is greater than 85%), the “Activity level (growth inhibition rate) Monochoria Vaginalis” value was 5 (Level 5: the growth inhibition rate is greater than 85%) and the “Activity level (growth inhibition rate) Murdannia triquetra” value was 5 (Level 5: the growth inhibition rate is greater than 85%). For the same molecule, the “Activity level (growth inhibition rate) Setaria viridis” value was 5 (Level 5: the growth inhibition rate is greater than 85%).
For `CC(Oc1nc(F)c(Cl)c(N)c1Cl)C(=O)ON=C(C(=O)NCCc1ccccc1)c1ccccc1` (stereo not drawn) [Compound 105], the “Activity level (growth inhibition rate) Digitaria sanguinalis” value was 5 (Level 5: the growth inhibition rate is greater than 85%), the “Activity level (growth inhibition rate) Echinochloa crusgalli” value was 5 (Level 5: the growth inhibition rate is greater than 85%) and the “Activity level (growth inhibition rate) Galium spurium” value was 5 (Level 5: the growth inhibition rate is greater than 85%). The “Activity level (growth inhibition rate) Leptochloa chinensis” value was 5 (Level 5: the growth inhibition rate is greater than 85%), the “Activity level (growth inhibition rate) Monochoria Vaginalis” value was 5 (Level 5: the growth inhibition rate is greater than 85%) and the “Activity level (growth inhibition rate) Murdannia triquetra” value was 5 (Level 5: the growth inhibition rate is greater than 85%). The “Activity level (growth inhibition rate) Setaria viridis” value was 5 (Level 5: the growth inhibition rate is greater than 85%).
